Data on 16 compounds can be found in paper PMC6155662, “Trypanocidal Activity of Quinoxaline 1,4 Di-N-oxide Derivatives as Trypanothione Reductase Inhibitors” (Molecules : A Journal of Synthetic Chemistry and Natural …, 2017).

Structures are written as SMILES.

In data set [1] the test system is T. cruzi bloodstream trypomastigotes NINOA strain. Nature of the data set: microbe, parasite or virus in culture. Type of data set: cell-based. As to conditions: Trypanosoma cruzi; for killing at 50 µg/mL: 50 μg/mL, 24 h at 4 °C, infected mouse blood, read-out: % Lysis at 50 μg/mL NINOA Strain; for LC50: 24 h. The method, then: (§1) In this study, two strains of T. cruzi isolated in Mexico were used. T. cruzi NINOA strain (MHOM/MX/1994/NINOA) was obtained from a patient with acute Chagas disease and T. cruzi INC-5 (MHOM/MX/1994/INC5) was isolated from a patient in the chronic phase of the disease. Epimastigotes were cultured in vitro in liver infusion-tryptose (LIT) medium supplemented with 10% heat inactivated fetal bovine serum (FBS) (Gibco) and 100 U/mL penicillin-streptomycin (In vitro S.A.), and incubated at 27 °C. CD1 mice, aged 6–8 weeks, were infected with T. cruzi to obtain bloodstream trypomastigote samples. Animal experiments were performed according to Norma Oficial Mexicana (NOM-062-Z00-1999) published on 22 August, 2009.
(§2) CD1 female mice 6–8 weeks old were infected with T. cruzi bloodstream trypomastigotes of the INC-5 and NINOA strains. The course of infection continued for 4–6 weeks. At the peak of parasitemia blood was obtained by cardiac puncture using sodium heparin as an anticoagulant. The blood was adjusted to 1 × 10^6 bloodstream trypomastigotes/mL.
(§3) In each well of the 96-well plate, 195 μL of infected blood and 5 μL of quinoxaline 1,4-di-N-oxide derivatives or reference drug dilutions were seeded, with each well reaching a final volume of 200 µL. Each assay was performed in triplicate. Initially, all compounds were tested at 50 μg/mL. […] As a negative control of lysis, wells with untreated blood trypomastigotes were used, and as a positive control, wells with the reference drugs were used. The microplates were incubated at 4 °C for 24 h. Bloodstream trypomastigotes were quantified by the method of Brener-Pizzi, 5 μL of blood were placed on a slide and covered with a coverslip 13 × 13 mm. The mobile protozoa were counted in 15 fields at 40× magnification using an optical microscope. The percentage lysis was determined by comparing the remaining trypomastigotes against the negative control. LC50 was determined with the Probit statistical tool. The results were later converted to micromolar units.

In data set [2] the test system is T. cruzi bloodstream trypomastigotes INC-5 strain. Description: microbe, parasite or virus in culture. In kind it is cell-based. As to conditions: Trypanosoma cruzi; for killing at 50 µg/mL: 50 μg/mL, 24 h at 4 °C, infected mouse blood, read-out: % Lysis at 50 μg/mL INC-5 Strain; for CC50: 24 h, bloodstream trypomastigotes, 24 h at 4 °C (called IC50 in abstract), read-out: LC50 INC-5 Strain. How it is done:
as §1, §2, §3

Data set [3] relates to T. cruzi INC-5 epimastigotes. Description: Viability (MTT) assay on T. cruzi epimastigotes. In kind it is cell-based, Trypanosoma cruzi. As to conditions: Trypanosoma cruzi, 24 h, mean and SD of triplicate. How it is done:
In this study, two strains of T. cruzi isolated in Mexico were used. […] Epimastigotes were cultured in vitro in liver infusion-tryptose (LIT) medium supplemented with 10% heat inactivated fetal bovine serum (FBS) (Gibco) and 100 U/mL penicillin-streptomycin (In vitro S.A.), and incubated at 27 °C. CD1 mice, aged 6–8 weeks, were infected with T. cruzi to obtain bloodstream trypomastigote samples.
Viability assays of T. cruzi epimastigotes using 3-(4,5-dimethylthiazol-2-yl)-2,5-diphenyltetrazolium bromide (MTT) were performed. Briefly, the parasites were harvested during the exponential growth phase for a period of five days. In a 96-well microplate 1x10^6 epimastigotes were deposited in brain-heart infusion (BHI) medium supplemented with 10% FBS and 100 U/mL antibiotic-antifungal mixture (Gibco). […] Each well reached a final volume of 100 µL. Each condition was assessed in triplicate. The microplate was incubated for 24 h at 27 °C in darkness. Afterwards, 10 μL of a 5 mg/mL MTT solution was added and the plate was incubated for 20 h at 27 °C. Then 200 μL of 10% dodecyl sulfate (SDS)/0.1% HCl solution was added to dissolve formazan salts; the plate was incubated an additional 4 h. Finally, the plate was read at 570 nm in a spectrophotometer (Multiskan EX Thermo Electron, Taipei, Taiwan). The amount of viable cells was proportional to the amount of formazan produced. […] Later the results were converted to micromolar units. […] As a […] control, parasites were incubated only in culture medium with a 1% DMSO concentration, corresponding to the highest sample dilution of DMSO [34, 35, 36].

Data set [4] is described as follows: Cytotoxicity assay (Alamar Blue) on macrophages. As to conditions: mouse, J774A.1 macrophages, mean and SD of triplicate. In kind it is cell-based, murine. The method, then: The murine macrophage cell line J774.A1 was maintained in culture flasks with RPMI 1640 medium supplemented with 10% FBS, 1% MEM-NEAA medium (Gibco) and 100 U/mL antibiotic-antifungal mixture (Gibco). Cells were incubated at 37 °C with 5% CO2 and humidity. Trypsinized J774.A1 macrophages were washed and viability was assessed by the trypan blue dye (Sigma-Aldrich, Toluca, Edo de Mexico, Mexico) exclusion assay. In a 96-well microplate, 50,000 macrophages were seeded per well and a dose-response assay was performed. Compounds were evaluated using six-fold serial dilutions ranging from 100 µg/mL to 0.3 µg/mL of final concentration. Each compound was tested in triplicate. After 20 h incubation, Alamar Blue was added (10% v/v) and cells were incubated for an additional 4 h period. Results were obtained as previously described and CC50 was calculated. As a negative control of cytotoxicity, cells were incubated only in the presence of 0.1% DMSO [39, 40].
Background: Resazurin is reduced to fluorescent resorufin, in cell work by metabolically active cells.

Take `Cc1c(C(N)=O)[n+]([O-])c2cc(C(=O)OC(C)C)ccc2[n+]1[O-]` [Compound T-108, Isopropyl 2-amide-3-methyl-quinoxaline-7-carboxilate 1,4-di-N-óxide]: the killing at 50 µg/mL was 12.8 ± 7.2% in data set [1] and 18.8 ± 2.8% in data set [2]. Moreover, in data set [3], half-maximal inhibition (IC50) required 131 ± 12.3 µM. Also, the CC50 at 24 h in data set [4] was 221 ± 9.4 µM.

In the case of `CCCOC(=O)c1ccc2c(c1)[n+]([O-])c(C(=O)OC)c(C)[n+]2[O-]` [Compound T-088, n-Propil methyl-3-methylquinoxaline-2,7-dicarboxylate 1,4-di-N-oxide], the figures for the killing at 50 µg/mL in data set [1] and in data set [2] were 16.3 ± 11.1% and 33.6 ± 6.8%, respectively. The IC50 (as a rule, the point on the concentration scale where inhibition reaches its midpoint) in data set [3] amounted to 139 ± 13.5 µM. This compound came in with a CC50 at 24 h in data set [4] of 143 ± 9.7 µM.

On to `COC(=O)c1c(C)[n+]([O-])c2ccc(C(=O)OC(C)C)cc2[n+]1[O-]` [Compound T-064, Isopropyl methyl-3-methyl-quinoxaline-2,7-dicarboxylate 1,4-di-N-oxide], for which the killing at 50 µg/mL in data set [1] came out at 3.2 ± 2%; in data set [2], 1.7 ± 2%. In data set [3], this compound gave an IC50 of 43.7 ± 8.6 µM. The same compound came in with a CC50 at 24 h in data set [4] of 135 ± 11.1 µM.

`CCOC(=O)c1c(C(F)(F)F)[n+]([O-])c2ccc(C(=O)OC(C)C)cc2[n+]1[O-]` [Compound T-116, Isopropyl ethyl-3-trifluoromethylquinoxaline-2,7-dicarboxylate 1,4-di-N-oxide]: the values for the killing at 50 µg/mL in data set [1] and in data set [2] were 49.9 ± 4% and 17.6 ± 2.6%, respectively. In data set [3], this compound registered a 50% inhibitory concentration (IC50) of 5.2 ± 2.1 µM. This compound had a CC50 at 24 h in data set [4] of 14.5 ± 0.8 µM.

With `CCOC(=O)c1c(C)[n+]([O-])c2ccc(C(=O)OC(C)C)cc2[n+]1[O-]` [Compound T-065, Isopropyl ethyl-3-methylquinoxaline-2,7-dicarboxylate 1,4-di-N-oxide], the results for the killing at 50 µg/mL in data set [1] and in data set [2] were 0.77 ± 1.58% and 3.78 ± 5.7%, respectively. Further, the concentration for half-maximal inhibition (IC50) in data set [3] was greater than 148 µM. This compound also came in with a CC50 at 24 h in data set [4] greater than 296 µM.

As to `Cc1c(C(=O)Nc2ccccc2)[n+]([O-])c2cc(C(=O)OC(C)C)ccc2[n+]1[O-]` [Compound T-097, Isopropyl 2-phenylamide-3-methylquinoxaline-7-carboxylate 1,4-di-N-oxide], the killing at 50 µg/mL in data set [1] is 12.2 ± 10.9%; in data set [2], 12.4 ± 5.2%. For the same compound, the IC50 in data set [3] is greater than 130 µM. The compound also showed a CC50 at 24 h in data set [4] greater than 261 µM.

In the case of `CCCOC(=O)c1ccc2c(c1)[n+]([O-])c(C(=O)Nc1ccccc1)c(C)[n+]2[O-]` [Compound T-125, n-Propyl 2-phenylamide-3-methylquinoxaline-7-carboxylate 1,4-di-N-oxide], the killing at 50 µg/mL came to 35.6 ± 3.6% in data set [1] and 0% in data set [2]. In data set [3], this compound showed a half-inhibitory concentration (IC50) greater than 130 µM. This compound also returned a CC50 at 24 h in data set [4] greater than 261 µM.

For `CC(=O)c1c(C(F)(F)F)[n+]([O-])c2ccc(C(=O)OC(C)C)cc2[n+]1[O-]` [Compound T-070, Isopropyl 2-acetyl-3-trifluoromethylquinoxaline-7-carboxylate 1,4-di-N-oxide], the values for the killing at 50 µg/mL in data set [1] and in data set [2] were 46 ± 2.7% and 10.8 ± 5.4%, respectively. This compound also displayed an IC50 in data set [3] of 2.83 ± 0.7 µM. Moreover, in data set [4], the CC50 at 24 h was determined as 17.5 ± 0.7 µM.

For the compound `CCCOC(=O)c1ccc2c(c1)[n+]([O-])c(C(=O)OC(C)(C)C)c(C)[n+]2[O-]` [Compound T-091, n-Propil tert-butyl-3-methylquinoxaline-2,7-dicarboxylate 1,4-di-N-oxide], the killing at 50 µg/mL turned out to be 7.3 ± 3.3% in data set [1] and 8.15 ± 2.2% in data set [2]. This compound had an IC50 in data set [3] greater than 137 µM. This compound had a CC50 at 24 h in data set [4] greater than 273 µM.

Turning to `CC1CS(=O)(=O)CCN1/N=C/c1ccc([N+](=O)[O-])o1` (centres unmarked) [Nfx, nifurtimox, reference compound], the results for the killing at 50 µg/mL in data set [1] and in data set [2] were 67.3 ± 5.4% and 62.6 ± 3.9%, respectively. Moreover, half-maximal inhibition in data set [3] (IC50) required 8.74 ± 3.8 µM. Further, the CC50 at 24 h in data set [4] was found to be 201 ± 12.5 µM.

Take `CCCOC(=O)c1ccc2c(c1)[n+]([O-])c(C(=O)c1cccs1)c(C(F)(F)F)[n+]2[O-]` [Compound T-089, n-Propil 2-(thiophene-2-carbonyl)-3-trifluoromethylquinoxaline-7-carboxylate 1,4-di-N-oxide]: in data set [1], the LC50 (in general, the concentration lethal to half of the exposed cells or organisms) was 115 ± 8.4 µM and the killing at 50 µg/mL was determined as 51.6 ± 3.4%. Also, in data set [2], the CC50 came to 122 ± 6.5 µM and the killing at 50 µg/mL was 42 ± 6.5%. This compound also came in with a half-maximal inhibitory concentration (IC50) in data set [3] of 7.59 ± 1.4 µM. Also, the CC50 at 24 h in data set [4] came to 7.71 ± 0.7 µM.

With `CC(C)OC(=O)c1ccc2c(c1)[n+]([O-])c(C(=O)c1ccccc1)c(C(F)(F)F)[n+]2[O-]` [Compound T-071, Isopropyl 2-benzoyl-3-trifluoromethylquinoxaline-7-carboxylate 1,4-di-N-oxide], in data set [1], the LC50 is 97.8 ± 6.3 µM and the killing at 50 µg/mL turned out to be 58.8 ± 4.4%. In addition, in data set [2], the CC50 was found to be 103 ± 8.3 µM and the killing at 50 µg/mL came to 69.2 ± 5.1%. For the same compound, the IC50 in data set [3] was 4.03 ± 0.5 µM. Besides, the CC50 at 24 h in data set [4] is 6.7 ± 0.8 µM.

`CC(C)OC(=O)c1ccc2c(c1)[n+]([O-])c(C(=O)C(F)(F)C(F)(F)F)c(C(F)(F)F)[n+]2[O-]` [Compound T-118, Isopropyl 2-pentafluorocarbonyl-3-trifluoromethylquinoxaline-7-carboxylate 1,4-di N-oxide]: the killing at 50 µg/mL in data set [1] turned out to be 34.4 ± 3.1%; in data set [2], 0%. In data set [3], this compound had an IC50 of 72.2 ± 8 µM. Moreover, in data set [4], the CC50 at 24 h worked out at 157 ± 6.3 µM.

With `Cc1c(C(=O)OC(C)(C)C)[n+]([O-])c2cc(C(=O)OC(C)C)ccc2[n+]1[O-]` [Compound T-066, Isopropyl tert-butyl-3-methylquinoxaline-2,7-dicarboxylate 1,4-di-N-oxide], the killing at 50 µg/mL in data set [1] came to 2.6 ± 4.3%; in data set [2] it was 5.4 ± 3.7%. Moreover, the half-maximal inhibitory concentration (IC50) in data set [3] is greater than 137 µM. The compound also gave a CC50 at 24 h in data set [4] greater than 273 µM.

Regarding `CCCOC(=O)c1ccc2c(c1)[n+]([O-])c(C(N)=O)c(C)[n+]2[O-]` [Compound T-130, n-Propyl 2-amide-3-methylquinoxaline-7-carboxylate 1,4-di-N-oxide], the results for the killing at 50 µg/mL in data set [1] and in data set [2] were 4.65 ± 3.4% and 0.69 ± 1.2%, respectively. Moreover, in data set [3], half-maximal inhibition (IC50) was put at 238 ± 11.5 µM. In addition, in data set [4], the CC50 at 24 h is greater than 326 µM.

Regarding `CCCOC(=O)c1ccc2c(c1)[n+]([O-])c(C(=O)OCC)c(C)[n+]2[O-]` [Compound T-090, n-Propil ethyl-3-methylquinoxaline-2,7-dicarboxylate 1,4-di-N-oxide], the killing at 50 µg/mL in data set [1] amounted to 28.6 ± 3.1%; in data set [2], 47.3 ± 3.3%. Moreover, in data set [3], the IC50 was 155 ± 12.3 µM. Moreover, in data set [4], the CC50 at 24 h stood at 146 ± 9.2 µM.
